The record followed here is patent publication US10570129B2 (Zoetis Services LLC, priority 2015, dated 2020).

For one experiment, the system named is D. immitis microfilariae. Briefly: Dirofilaria immitis, microfilariae (DiMF) in vitro motility assay. The following applies: Dirofilaria immitis, 72 h, read-out: DiMF minimally effective dose (MEC). It counts as cell-based.
The test system of the next experiment is Haemonchus contortus L3. In words: microbe, parasite or virus in culture. It counts as cell-based. Particulars: Haemonchus contortus, 96 h, read-out: HcL3 Minimal Effective Concentration (MEC).

Bounds are passed on as bounds.

Turning to `N#Cc1ccc2c(c1)c1c(n2C(=O)NCc2ccnc(F)c2)CCN(C/C=C/c2ccc(F)cc2Cl)C1` [Example 114, (E)-2-(3-(2-chloro-4-fluorophenyl)allyl)-8-cyano-N-((2-fluoropyridin-4-yl)methyl)-1,2,3,4-tetrahydro-5H-pyrido[4,3-b]indole-5-carboxamide], the minimal effective concentration amounted to 10 µM in the experiment with D. immitis microfilariae and 0.1 µM in the experiment with Haemonchus contortus L3.
Consider `N#Cc1ccc2c(c1)c1c(n2C(=O)NCc2ccnc(F)c2)CCN(C/C=C/c2cc(F)c(F)c(F)c2)C1` [Example 116, (E)-8-cyano-N-((2-fluoropyridin-4-yl)methyl)-2-(3-(3,4,5-trifluorophenyl)allyl)-1,2,3,4-tetrahydro-5H-pyrido[4,3-b]indole-5-carboxamide], for which the minimal effective concentration in the experiment with D. immitis microfilariae worked out at 1.3 µM; with Haemonchus contortus L3, 0.1 µM.
In the same order, the values of `N#Cc1ccc2c(c1)c1c(n2C(=O)NCc2ccnc(F)c2)CCN(C/C=C/c2cc(F)cc(F)c2)C1` [Example 117, (E)-8-cyano-2-(3-(3,5-difluorophenyl)allyl)-N-((2-fluoropyridin-4-yl)methyl)-1,2,3,4-tetrahydro-5H-pyrido[4,3-b]indole-5-carboxamide] are 1.8 µM and 0.2 µM.
In the case of `N#Cc1ccc2c(c1)c1c(n2C(=O)NCc2ccnc(F)c2)CCN(C/C=C/c2cccc(Cl)c2F)C1` [Example 118, (E)-2-(3-(3-chloro-2-fluorophenyl)allyl)-8-cyano-N-((2-fluoropyridin-4-yl)methyl)-1,2,3,4-tetrahydro-5H-pyrido[4,3-b]indole-5-carboxamide], the minimal effective concentration in the experiment with D. immitis microfilariae was found to be 5.7 µM; in the experiment with Haemonchus contortus L3 it was 1.8 µM.
Regarding `N#Cc1ccc2c(c1)c1c(n2C(=O)NCc2ccnc(F)c2)CCN(C/C=C/c2cccc(F)c2F)C1` [Example 119, (E)-8-cyano-2-(3-(2,3-difluorophenyl)allyl)-N-((2-fluoropyridin-4-yl)methyl)-1,2,3,4-tetrahydro-5H-pyrido[4,3-b]indole-5-carboxamide], the minimal effective concentration in the experiment with D. immitis microfilariae was found to be 18.2 µM; in the experiment on Haemonchus contortus L3, 3.3 µM.
On to `N#Cc1ccc(/C=C/CN2CCc3c(c4cc(C#N)ccc4n3C(=O)NCc3ccnc(F)c3)C2)cc1` [Example 120, (E)-8-cyano-2-(3-(4-cyanophenyl)allyl)-N-((2-fluoropyridin-4-yl)methyl)-1,2,3,4-tetrahydro-5H-pyrido[4,3-b]indole-5-carboxamide], for which the figures for the minimal effective concentration in the experiment with D. immitis microfilariae and in the experiment with Haemonchus contortus L3 were above 100 µM and 0.5 µM, respectively.
For `N#Cc1ccc2c(c1)c1c(n2C(=O)NCc2ccnc(F)c2)CCN(C/C=C/c2ccc(Cl)cc2)C1` [Example 121, (E)-2-(3-(4-chlorophenyl)allyl)-8-cyano-N-((2-fluoropyridin-4-yl)methyl)-1,2,3,4-tetrahydro-5H-pyrido[4,3-b]indole-5-carboxamide], in that order: 10 µM and 0.3 µM.
For `N#Cc1ccc2c(c1)c1c(n2C(=O)NCc2ccnc(F)c2)CCN(C/C=C/c2ccncc2)C1` [Example 124, (E)-8-cyano-N-((2-fluoropyridin-4-yl)methyl)-2-(3-(pyridin-4-yl)allyl)-1,2,3,4-tetrahydro-5H-pyrido[4,3-b]indole-5-carboxamide], the minimal effective concentration in the experiment on D. immitis microfilariae is 33 µM; in the experiment on Haemonchus contortus L3, 100 µM.
In the case of `N#Cc1ccc2c(c1)c1c(n2C(=O)NCc2ccnc(F)c2)CCN(C/C=C/c2ccc(F)cc2Br)C1` [Example 125, (E)-2-(3-(2-bromo-4-fluorophenyl)allyl)-8-cyano-N-((2-fluoropyridin-4-yl)methyl)-1,2,3,4-tetrahydro-5H-pyrido[4,3-b]indole-5-carboxamide], the minimal effective concentration in the experiment with D. immitis microfilariae was above 100 µM; with Haemonchus contortus L3, 0.3 µM.
